Earlier results as cited in US20140199433A1, “POLYDIORGANOSILOXANE-ENCAPSULATED ACTIVE INGREDIENT, METHOD FOR THE PREPARATION THEREOF, AND CHEWING GUM COMPRISING SAME” (Intercontinental Great Brands LLC, priority 2011, published 2014).

Details: 20° C. and one atmosphere

water solubility: about 588 grams per liter
SMILES: O=C(O)CC(O)C(=O)O (stereo not shown) [malic acid]
